Test results published in US6458781B1, “Substituted diarylalkyl amides as calcium channel antagonists” (priority 1998, dated 2002).
Where a name gives a salt, the structure may show the parent alone. Read-outs that look alike come from different tables or passages of the source.

Experiments:
[1] = biological target: T1, N-type calcium channels in IMR-32 cells (Homo sapiens, UniProt Q00975); assay: N-type Ca2+ channel blocking potency in IMR-32 cells using Indo-1; format: cell-based; conditions: for IC50: IMR-32 cells
T1 construct: host or cells: IMR-32 cells differentiated with dibutyryl cAMP and bromodeoxyuridine
T1 sequence (Q00975 whole entry): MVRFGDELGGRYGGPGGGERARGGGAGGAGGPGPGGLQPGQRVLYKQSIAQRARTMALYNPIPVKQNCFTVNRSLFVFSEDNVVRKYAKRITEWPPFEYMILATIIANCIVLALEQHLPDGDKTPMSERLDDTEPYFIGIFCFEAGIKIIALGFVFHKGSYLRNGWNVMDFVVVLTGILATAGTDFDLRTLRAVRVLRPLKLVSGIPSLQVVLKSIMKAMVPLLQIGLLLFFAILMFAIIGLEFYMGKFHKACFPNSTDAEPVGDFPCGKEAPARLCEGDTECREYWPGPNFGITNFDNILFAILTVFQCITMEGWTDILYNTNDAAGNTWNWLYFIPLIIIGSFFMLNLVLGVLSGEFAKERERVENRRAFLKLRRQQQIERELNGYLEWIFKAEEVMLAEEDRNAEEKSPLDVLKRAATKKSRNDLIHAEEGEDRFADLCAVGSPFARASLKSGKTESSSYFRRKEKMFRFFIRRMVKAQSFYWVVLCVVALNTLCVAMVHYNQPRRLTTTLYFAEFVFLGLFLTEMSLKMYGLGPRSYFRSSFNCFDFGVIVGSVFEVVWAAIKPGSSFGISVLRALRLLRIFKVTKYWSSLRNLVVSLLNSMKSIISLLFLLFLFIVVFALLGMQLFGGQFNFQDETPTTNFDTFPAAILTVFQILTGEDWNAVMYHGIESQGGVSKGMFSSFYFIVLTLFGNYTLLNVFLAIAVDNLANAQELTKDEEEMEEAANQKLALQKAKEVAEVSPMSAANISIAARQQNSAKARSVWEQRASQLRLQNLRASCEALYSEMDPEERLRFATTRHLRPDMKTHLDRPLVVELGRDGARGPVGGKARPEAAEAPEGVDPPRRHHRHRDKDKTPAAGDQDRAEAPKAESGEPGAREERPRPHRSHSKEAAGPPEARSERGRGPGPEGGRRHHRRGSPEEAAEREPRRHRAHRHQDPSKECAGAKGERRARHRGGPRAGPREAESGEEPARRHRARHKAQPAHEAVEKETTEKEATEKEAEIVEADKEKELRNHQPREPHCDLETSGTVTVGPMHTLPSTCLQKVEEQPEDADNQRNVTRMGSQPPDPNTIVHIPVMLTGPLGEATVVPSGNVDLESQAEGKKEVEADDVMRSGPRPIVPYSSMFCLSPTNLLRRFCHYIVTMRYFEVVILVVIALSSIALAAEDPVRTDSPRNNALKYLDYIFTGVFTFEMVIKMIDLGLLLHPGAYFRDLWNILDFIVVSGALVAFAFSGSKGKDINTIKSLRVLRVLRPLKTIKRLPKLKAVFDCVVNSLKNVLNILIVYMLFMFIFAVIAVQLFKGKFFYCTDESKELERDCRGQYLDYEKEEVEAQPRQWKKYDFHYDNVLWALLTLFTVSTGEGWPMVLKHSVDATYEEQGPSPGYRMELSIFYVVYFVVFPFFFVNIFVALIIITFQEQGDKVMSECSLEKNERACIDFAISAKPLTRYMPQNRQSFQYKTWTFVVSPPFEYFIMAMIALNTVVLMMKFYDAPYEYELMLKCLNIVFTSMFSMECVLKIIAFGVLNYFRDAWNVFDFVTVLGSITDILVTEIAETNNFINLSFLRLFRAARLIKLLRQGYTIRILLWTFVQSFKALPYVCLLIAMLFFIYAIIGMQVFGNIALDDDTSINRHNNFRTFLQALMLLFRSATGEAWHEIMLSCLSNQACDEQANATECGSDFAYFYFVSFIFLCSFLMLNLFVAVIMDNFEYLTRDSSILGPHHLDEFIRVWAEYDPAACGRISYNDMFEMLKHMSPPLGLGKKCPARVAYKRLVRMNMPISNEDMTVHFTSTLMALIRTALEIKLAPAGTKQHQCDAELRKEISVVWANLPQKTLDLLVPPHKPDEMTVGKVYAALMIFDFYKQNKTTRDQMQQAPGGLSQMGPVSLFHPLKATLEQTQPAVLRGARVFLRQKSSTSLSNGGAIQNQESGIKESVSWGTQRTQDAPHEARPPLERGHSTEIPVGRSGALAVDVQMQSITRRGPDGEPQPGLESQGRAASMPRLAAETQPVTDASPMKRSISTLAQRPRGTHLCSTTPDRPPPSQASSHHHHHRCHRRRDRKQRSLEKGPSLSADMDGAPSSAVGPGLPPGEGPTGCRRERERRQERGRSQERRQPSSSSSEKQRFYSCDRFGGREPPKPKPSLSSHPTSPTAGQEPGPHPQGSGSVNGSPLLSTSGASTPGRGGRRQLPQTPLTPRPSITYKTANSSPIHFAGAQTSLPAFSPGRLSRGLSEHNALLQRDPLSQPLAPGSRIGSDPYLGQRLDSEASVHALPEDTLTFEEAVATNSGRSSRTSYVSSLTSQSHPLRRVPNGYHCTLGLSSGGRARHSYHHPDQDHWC
T1 sequence (P54289 25-956 partner limits assumed): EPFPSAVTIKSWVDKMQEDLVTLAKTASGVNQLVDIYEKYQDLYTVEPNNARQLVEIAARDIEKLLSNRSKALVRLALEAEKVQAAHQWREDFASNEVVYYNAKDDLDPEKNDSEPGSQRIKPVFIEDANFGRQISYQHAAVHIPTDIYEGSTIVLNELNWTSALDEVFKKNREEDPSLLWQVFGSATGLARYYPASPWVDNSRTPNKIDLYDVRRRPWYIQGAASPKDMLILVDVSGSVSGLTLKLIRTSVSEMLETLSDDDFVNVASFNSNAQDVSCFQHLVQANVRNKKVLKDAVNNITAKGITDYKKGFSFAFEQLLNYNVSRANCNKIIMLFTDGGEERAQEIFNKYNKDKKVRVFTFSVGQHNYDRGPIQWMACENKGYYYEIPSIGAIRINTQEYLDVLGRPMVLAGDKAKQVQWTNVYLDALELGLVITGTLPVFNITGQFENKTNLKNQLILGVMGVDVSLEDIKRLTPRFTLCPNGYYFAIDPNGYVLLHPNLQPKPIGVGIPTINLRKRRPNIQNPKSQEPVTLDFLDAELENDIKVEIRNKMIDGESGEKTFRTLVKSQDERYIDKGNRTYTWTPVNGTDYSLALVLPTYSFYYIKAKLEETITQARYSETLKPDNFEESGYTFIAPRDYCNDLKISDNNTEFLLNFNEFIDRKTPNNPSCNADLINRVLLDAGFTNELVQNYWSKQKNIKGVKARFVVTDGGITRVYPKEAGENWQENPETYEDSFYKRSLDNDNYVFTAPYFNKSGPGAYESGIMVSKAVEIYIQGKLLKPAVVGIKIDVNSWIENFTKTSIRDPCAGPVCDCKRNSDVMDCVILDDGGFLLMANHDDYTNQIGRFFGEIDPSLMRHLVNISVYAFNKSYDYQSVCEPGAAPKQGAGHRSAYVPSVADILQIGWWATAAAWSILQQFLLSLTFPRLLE
T1 sequence (P54289 957-1103 partner limits assumed): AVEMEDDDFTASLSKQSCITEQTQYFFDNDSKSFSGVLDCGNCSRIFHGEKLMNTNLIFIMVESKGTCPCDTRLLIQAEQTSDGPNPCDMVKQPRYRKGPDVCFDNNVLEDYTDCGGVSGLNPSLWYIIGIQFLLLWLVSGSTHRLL
T1 sequence (Q02641 whole entry partner): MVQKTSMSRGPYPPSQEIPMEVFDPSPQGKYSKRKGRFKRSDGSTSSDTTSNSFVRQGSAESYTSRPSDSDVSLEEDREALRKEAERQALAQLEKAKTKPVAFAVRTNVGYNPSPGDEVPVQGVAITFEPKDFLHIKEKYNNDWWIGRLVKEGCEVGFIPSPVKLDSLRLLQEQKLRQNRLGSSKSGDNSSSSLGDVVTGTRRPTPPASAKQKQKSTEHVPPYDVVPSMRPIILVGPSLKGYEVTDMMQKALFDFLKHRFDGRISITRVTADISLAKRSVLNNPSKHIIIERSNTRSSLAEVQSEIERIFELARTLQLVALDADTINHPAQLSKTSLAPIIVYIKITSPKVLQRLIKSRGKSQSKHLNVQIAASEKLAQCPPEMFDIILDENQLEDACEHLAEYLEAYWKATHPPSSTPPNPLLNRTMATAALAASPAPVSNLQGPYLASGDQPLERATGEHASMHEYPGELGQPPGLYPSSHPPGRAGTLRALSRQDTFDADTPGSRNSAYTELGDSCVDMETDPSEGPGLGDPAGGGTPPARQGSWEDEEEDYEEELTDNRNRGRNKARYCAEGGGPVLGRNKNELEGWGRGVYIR
Outline: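 Differentiated IMR-32 cells loaded with Indo-1 AM were preincubated with compound and 5 μM nitrendipine (L-type block) for 10 min at 30° C in HEPES/Tris pH 7.4 HBSS with 0.5% BSA. Cells were depolarized with KCl/CaCl2, and the 400/490 nm emission ratio rise over basal was measured. IC50 came from a four-parameter logistic fit.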

[2] = tested on: sound-induced tonic convulsions in DBA/2 mice; assay: Audiogenic seizure model in DBA/2 mice; format: in vivo; conditions: Mus musculus, protected/tested, read-out: Number of Mice Protected From Tonic Convulsions (converted); for responders at 30 mg/kg: 30 mg/Kg IV; for responders at 3 mg/kg: 3 mg/Kg IV; for responders at 10 mg/kg: 10 mg/Kg IV
Experimental: Audiogenic Seizure Model in DBA/2 Mice
A compound of the present invention was dissolved in water using 10% (weight/volume) Emulphor (GAF Corp., Wayne, N.J.) surfactant. Substances were administered by intravenous injection into the retro-orbital venous sinus of male mice (3-4 weeks old, Jackson Laboratories, Bar Harbour, Me.). All testing was preformed 15 minutes or 45 minutes after drug injection. Immediately before anticonvulsant testing, mice were placed upon a wire mesh, 4 inches square suspended from a steel rod. The square was slowly inverted through 180 degrees and mice observed for 30 seconds. Any mouse falling from the wire mesh was scored as ataxic.
Mice were placed into an enclosed acrylic plastic chamber (21 cm height, approximately 30 cm diameter) with a high-frequency speaker (4 cm diameter) in the center of the top lid. An audio signal generator (Protek model B-810) was used to produce a continuous sinusoidal tone that Was swept linearly in frequency between 8 kHz and 16 kHz once each 10 msec. The average sound pressure level (SPL) during stimulation was approximately 100 dB at the floor of the chamber. Mice were placed within the chamber and allowed to acclimatize for 1 minute. DBA/2 mice in the vehicle-treated group responded to the sound stimulus (applied until tonic extension occurred, or for a maximum of 60 sec) with a characteristic seizure sequence consisting of wild running followed by clonic seizures, and later by tonic extension, and finally by respiratory arrest and death in 80% or more of the mice. In vehicle-treated mice, the entire sequence of seizures to respiratory arrest lasts approximately 15-20 seconds.
The incidence of all the seizure phases in the drug-treated and vehicle-treated mice was recorded, and the occurrence of tonic seizures were used for calculating anticonvulsant ED50 values by probit analysis. Mice were used only once for testing at each time and dose point.

[3] = tested on: electroshock-induced tonic extensor seizures in CF-1 mice; assay: Maximal electroshock testing; format: in vivo; conditions: protected/tested
Experimental: Maximal Electroshock Testing
In this test, four representative compounds were tested for their anticonvulsant effects using the procedure described below.
Male CF-1 mice, 20 to 28 g, from Charles River Laboratories, Portage, Mich. were used in all experiments. Groups of 10 mice each were given various intravenous doses of test compound in aqueous solution with 10% Emulphan® Surfactant in a volume of 10 mL/kg of body weight. Electroshock was delivered by corneal electrodes with 60 Hz alternating current (50 mA root-mean-squared for 0.2 seconds) using a constant-current stimulator (Wahlquist Instruments, Salt Lake City, Utah). Untreated or saline-treated mice reliably had tonic extensor seizures with rearward extension of hindlimbs more than 3 seconds. These methods are similar to those published by Krall R. L.; Penry J. K.; White B. G.; and Kupferberg H. K. Antiepileptic Drug Development II. Anticonvulsant Drug Screening, Epilepsia, 1978; 19:409-428.

[4] = 5 μM nitrendipine present, read-out: IMR32 IC50
[5] = 10 mg/Kg iv, 15 min posttreatment
[6] = 30 mg/Kg iv, 15 min posttreatment
[7] = estimated from two data points, read-out: IMR32 IC50 (estimated IC50 values based on two data points)

SMILES	IC50 [1, 4] [nM]	responders at 30 mg/kg ([2]; 0.25 h, 15 min posttreatment) [%]	responders at 30 mg/kg ([2]; 0.75 h, 45 min posttreatment) [%]	further results
CC(C)C[C@H](NCC1CCCCC1)C(=O)NCCCC(c1ccc(F)cc1)c1ccc(F)cc1 [Example 8, (S)-2-(Cyclohexylmethyl-amino)-4-methyl-pentanoic acid [4,4-bis-(4-fluoro-phenyl)-butyl]-amide monohydrochloride]	460	100	100	responders at 3 mg/kg ([2]; 0.25 h, 15 min posttreatment): 0%; responders at 10 mg/kg ([2]; 0.25 h, 15 min posttreatment): 80%; responders at 3 mg/kg ([2]; 0.75 h, 45 min posttreatment): 0%; responders at 10 mg/kg ([2]; 0.75 h, 45 min posttreatment): 40%; Number of Mice Protected from Tonic Convulsions [3, 5]: 0/4; Number of Mice Protected from Tonic Convulsions ([3]; 10 mg/Kg iv, 45 min posttreatment): 0/5; Number of Mice Protected from Tonic Convulsions [3, 6]: 4/4; Number of Mice Protected from Tonic Convulsions ([3]; 30 mg/Kg iv, 45 min posttreatment): 2/2
CN[C@@H](CC(C)C)C(=O)NCCCC(c1ccc(F)cc1)c1ccc(F)cc1 [Example 12, (S)-4-Methyl-2-methylamino-pentanoic acid [4,4-bis-(4-fluoro-phenyl)-butyl]-amide monohydrochloride]	1430	100	80	
CC(C)CCN(C)[C@@H](CC(C)C)C(=O)NCCCC(c1ccc(F)cc1)c1ccc(F)cc1 [Example 28, (S)-4-Methyl-2-[methyl-(3-methyl-butyl)-amino]-pentanoic acid [4,4-bis-(4-fluoro-phenyl)-butyl]-amide monohydrochloride]		80	100	inhibition at 1 µM ([1]; IMR-32, IMR-32 cells, at 1 μM, read-out: IMR32 % blockage at 1 μM): 92%; inhibition at 10 µM ([1]; IMR-32, IMR-32 cells, at 10 μM, read-out: IMR32 % blockage at 10 μM): 97%
CC(C)C[C@@H](CN1CCN(C(c2ccc(F)cc2)c2ccc(F)cc2)CC1)NC(=O)N1CCCCCC1 [Example 36, (S)-Azepane-1-carboxylic acid (1-{4-[bis-(4-fluoro-phenyl)-methyl]-piperazin-1-ylmethyl}-3-methyl-butyl)-amide]				IC50 [1, 7]: 500 nM
CC(C)C[C@@H](C(=O)N1CCN(C(c2ccc(F)cc2)c2ccc(F)cc2)CC1)N(C)C [Example 39, (S)-1-{4-[Bis-(4-fluoro-phenyl)-methyl]-piperazin-1-yl}-2-dimethylamino-4-methyl-pentan-1-one dihydrochloride]				IC50 [1, 7]: 3500 nM

The next lines start with results.

IC50 [1, 4] [nM]	SMILES	responders at 30 mg/kg ([2]; 0.25 h, 15 min posttreatment) [%]	responders at 30 mg/kg ([2]; 0.75 h, 45 min posttreatment) [%]	further results
2400	CC(C)C[C@H](N)C(=O)NCCCC(c1ccc(F)cc1)c1ccc(F)cc1 [Example 7, (S)-2-Amino-4-methyl-pentanoic acid [4,4-bis-(4-fluoro-phenyl)-butyl]-amide monohydrochloride]	80	80	
280	CC(C)=CCN[C@@H](CC(C)C)C(=O)NCCCC(c1ccc(F)cc1)c1ccc(F)cc1 [Example 9, (S)-4-Methyl-2-(3-methyl-but-2-enylamino)-pentanoic acid [4,4-bis-(4-fluoro-phenyl)-butyl]-amide monohydrochloride]	100	100	responders at 3 mg/kg ([2]; 0.25 h, 15 min posttreatment): 60%; responders at 10 mg/kg ([2]; 0.25 h, 15 min posttreatment): 100%; responders at 3 mg/kg ([2]; 0.75 h, 45 min posttreatment): 0%; responders at 10 mg/kg ([2]; 0.75 h, 45 min posttreatment): 60%; Number of Mice Protected from Tonic Convulsions [3, 5]: 10/10; Number of Mice Protected from Tonic Convulsions [3, 6]: 10/10
840	CC(C)C[C@@H](C(=O)NCCCC(c1ccc(F)cc1)c1ccc(F)cc1)N(C)Cc1ccc(C(C)(C)C)cc1.Cl [Example 14, (S)-2-[(4-tert-Butyl-benzyl)-methyl-amino]-4-methyl-pentanoic acid [4,4-bis-(4-fluoro-phenyl)-butyl]-amide monohydrochloride]			melting point: 87 to 95 °C
480	CC(C)C[C@H](NC(=O)N1CCCCCC1)C(=O)N1CCN(C(c2ccc(F)cc2)c2ccc(F)cc2)CC1 [Example 31, (S)-Azepane-1-carboxylic acid (1-{4-[bis-(4-fluoro-phenyl)-methyl]-piperazine-1-carbonyl}-3-methyl-butyl)-amide]	0	0	
850	CC(C)[C@H](NC(=O)N1CCCCCC1)C(=O)N1CCN(C(c2ccc(F)cc2)c2ccc(F)cc2)CC1 [Example 33, (S)-Azepane-1-carboxylic acid (1-{4-[bis-(4-fluoro-phenyl)-methyl]-piperazine-1-carbonyl}-2-methyl-propyl)-amide]	0	0	
